Data from publication PMC10175918 (Communications Biology, 2023).
“And” between values parts separate entries of the source, which are not always exact repeats. Equal values may be shown once. Read-outs that look alike come from different tables or passages of the source.

Columns and labels:
[1] = tested on: UTS2R D130G; experiment: TGFα-shedding assay on UTS2R SNV mutant D130G; assay type: cell-based, human; settings: cutoff value set to −1, single replicates
[2] = target: T1, UTS2R (β-arrestin 1 recruitment) (Homo sapiens, UniProt Q9UKP6); experiment: NanoBiT β-arrestin 1 recruitment assay for UTS2R; assay type: cell-based; settings: β-arrestin 1, Fig. 1c
T1 construct: expressed in transfected cells; host or cells: HEK293A
T1 sequence (Q9UKP6 whole entry): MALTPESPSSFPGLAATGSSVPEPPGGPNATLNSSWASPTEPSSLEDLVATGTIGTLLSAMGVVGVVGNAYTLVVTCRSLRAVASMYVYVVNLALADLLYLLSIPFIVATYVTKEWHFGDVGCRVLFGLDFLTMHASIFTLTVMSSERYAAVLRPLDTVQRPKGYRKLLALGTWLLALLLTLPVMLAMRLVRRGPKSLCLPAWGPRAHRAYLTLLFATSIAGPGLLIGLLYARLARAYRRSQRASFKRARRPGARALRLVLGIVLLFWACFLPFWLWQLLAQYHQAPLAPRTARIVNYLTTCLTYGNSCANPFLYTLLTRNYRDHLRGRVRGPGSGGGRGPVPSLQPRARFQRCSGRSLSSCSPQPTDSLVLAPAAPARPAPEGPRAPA

[3] = tested on: neonatal rat cardiomyocytes (NRCMs); settings: for Contraction [a.u.]: 48 h
[4] = target: T2, FLAG-UTS2R (Homo sapiens, UniProt Q9UKP6); experiment: Competitive binding assay: biotin-UT2 pulldown of FLAG-UTS2R from HEK293 membrane fraction; settings: membrane fraction of HEK293 cells expressing FLAG-UTS2R, streptavidin beads, western blot
T2 construct: expressed in transfected cells; host or cells: HEK293
T2 sequence (Q9UKP6 whole entry): as above
Description: HEK293 cells were transfected with the plasmid encoding FLAG-UTS2R and were serum-starved for 6 h before experimentation. Cells were washed twice with ice-cold PBS. Hypotonic solution (50 mM HEPES, pH 7.5 with protease inhibitor cocktails) was added to the cell plate, and the cells were harvested by scraping. Cells were homogenized using a dounce homogenizer (IKA EUROSTAR 20 digital) at 2,000 rpm for 20 strokes at 4 °C, and further homogenized using a tissue rupture (Qiagen) for 5 s at 4 °C. The homogenate was centrifuged at 800 x g for 10 min at 4 °C to remove unbroken cells and the nucleus. The supernatant was further centrifuged at 30,000×g for 30 min at 4° (CP80NX, himac). The resulting pellet was used as crude membrane fraction and was suspended in hyperosmotic solution (50 mM HEPES, pH 7.5, 250 mM NaCl, 2 mM EDTA with protease inhibitor).
The biotin-UT2-bound UTS2R complex was solubilized using a hyperosmotic buffer containing detergent (N-Dodecyl-β-D-maltopyranoside; DDM, 5× CMC) and pulled down using streptavidin magnetic beads. The suitable beads for the experiment were selected from 5 types (Supplementary Fig. 1d, Dynabeads Streptavidin Trial Kit, Thermo Fisher, and Streptavidin magnetic beads, NEB) and denatured with SDS buffer. […]

[5] = tested on: UTS2R T304V; experiment: TGFα-shedding assay on UTS2R mutant T304V; assay type: cell-based, human; settings: cutoff value set to −1, single replicates
[6] = target: T3, UTS2R D130N (Homo sapiens, UniProt Q9UKP6, D130N); experiment: TGFα-shedding assay on UTS2R mutant D130N; assay type: cell-based
T3 construct: expressed in transfected cells; host or cells: HEK293A
T3 sequence (Q9UKP6 whole entry D130N): as the sequence (Q9UKP6 whole entry) above, with D130N counted along it

[7] = tested on: human induced pluripotent stem cell-derived cardiomyocytes (hiPSC-CMs); experiment: Field potential recording (MEA) in hiPSC-CMs; assay type: cell-based; settings: for prolonged FPD: 1 µM remdesivir; for FPD delay: remdesivir with UTS2R antagonist (urantide)
Description: Human induced pluripotent stem cell-derived cardiomyocytes (hiPSC-CMs) were purchased from Fujifilm Cellular Dynamics, Inc. (CDI; iCell cardiomyocytes 2.0). To prepare the probe (MED-PG515A, Alpha MED Sciences), the recording areas were coated with fibronectin and dissolved in Dulbecco’s phosphate-buffered saline to create a 50 µg/mL solution. The recording area was covered with 1–2 µL fibronectin solution, and the probes were incubated at 37 °C for at least 1 h. Cells were thawed and suspended in iCell Cardiomyocytes Plating Medium (CDI) and plated onto the probes at a density of 3.5×10^4 cells in a 2 µL plating medium. The cells were incubated at 37 °C in 5% CO2 for 3–4 h before filling each probe with 1 mL iCell cardiomyocytes maintenance medium (CDI), which was used as the culture medium. The medium was changed every 2–3 days, with the cells cultured in the probes for 5–14 days to obtain a sheet of cardiomyocytes with spontaneous and synchronous electrical activity.
FP recording was carried out[35],[60]. Before measuring FPs, iCell cardiomyocyte sheets were equilibrated for at least 4 h in a fresh culture medium using a 5% CO2 incubator at 37 °C. After equilibration, the probes were transferred to the multi-electrode array (MEA) system (MED64, Alpha med Scientific) and incubated in a humidified 5% CO2 atmosphere. The stability and constancy of the waveforms were confirmed by monitoring the signals for at least 30 min. Once the FPs reached a stable state, they were recorded for 10 min at the baseline and then 24, 48, and 72 h after drug treatment. The stock solutions of drugs were prepared in dimethyl sulfoxide (DMSO) or distilled water at a 1000-fold target concentration. The stock solution was diluted in a culture medium to a final concentration of 0.1% DMSO.
The FP duration (FPD) was defined as the duration from the first to the second peak in FP[35]. The FPD was corrected for the beat rate (inter-spike interval (ISI)) with Fridericia’s formula (Eq. 1), which was the primary method of correction in this study:1 (FPDcF=FPD/(ISI/1000)^1/3).

[8] = tested on: ERK1/2 phosphorylation in HEK293 cells overexpressing UTS2R; experiment: Western blot of ERK1/2 phosphorylation in HEK293 cells overexpressing UTS2R; assay type: cell-based, human; settings: application for up to 72 h
[9] = target: T4, UTS2R (β-arrestin 2 recruitment) (Homo sapiens, UniProt Q9UKP6); experiment: NanoBiT β-arrestin 2 recruitment assay for UTS2R; assay type: cell-based; settings: β-arrestin 2, Supplementary Fig. 1b
T4 construct: expressed in transfected cells; host or cells: HEK293A
T4 sequence (Q9UKP6 whole entry): as the sequence (Q9UKP6 whole entry) above

[10] = tested on: UTS2R G68C; experiment: TGFα-shedding assay on UTS2R SNV mutant G68C; assay type: cell-based, human; settings: cutoff value set to −1, single replicates
[11] = tested on: UTS2R M134T; experiment: TGFα-shedding assay on UTS2R mutant M134T; assay type: cell-based, human; settings: cutoff value set to −1, single replicates
[12] = tested on: UTS2R N297A; experiment: TGFα-shedding assay on UTS2R mutant N297A; assay type: cell-based, human; settings: cutoff value set to −1, single replicates
[13] = tested on: UTS2R M134A; experiment: TGFα-shedding assay on UTS2R mutant M134A; assay type: cell-based, human; settings: cutoff value set to −1, single replicates
[14] = tested on: mitochondrial respiratory complex proteins; experiment: Western blot of mitochondrial respiratory complex proteins in UTS2R-transfected HEK293A cells; assay type: cell-based, human; settings: 10 μM remdesivir, 48 h

**Q.** For `CCC(CC)COC(=O)[C@H](C)N[P@](=O)(OC[C@H]1O[C@@](C#N)(c2ccc3c(N)ncnn23)[C@H](O)[C@@H]1O)Oc1ccccc1` [remdesivir], which “⊿pEC50 compared to WT UTS2R” value [1] is on record?
**A.** The value was > 0.3 and 0.2569 and 0.39 and 0.2404 and 0.3246.

**Q.** And the β-arrestin recruitment response [2]?
**A.** The β-arrestin recruitment response was “failed to induce a β-arrestin recruitment response”.

**Q.** What about the “Contraction [a.u.]” value ([3]; Fig.4a, 1 µM remdesivir, pacing, replicates) of the same compound?
**A.** The value was 0.1429 a.u. and 0.1533 a.u. and 0.1024 a.u.

**Q.** And the “Contraction [a.u.]” value ([3]; Fig.4a, urantide (100 nM) + 1 µM remdesivir)?
**A.** The value was 0.2641 a.u. and 0.2651 a.u. and 0.2715 a.u.

**Q.** And the “Contraction [a.u.]” value ([3]; Fig.4b, 1 µM remdesivir, pacing, replicates)?
**A.** Its value is 0.1019 a.u. and 0.1158 a.u. and 0.1194 a.u.

**Q.** And the “Contraction [a.u.]” value ([3]; Fig.4b, PTX (150 ng/mL) + 1 µM remdesivir)?
**A.** Its value is 0.3302 a.u. and 0.3344 a.u. and 0.3245 a.u.

**Q.** And the “Contraction [a.u.]” value ([3]; Fig.4b, YM-254890 (1 μM) + 1 µM remdesivir)?
**A.** The value was 0.108 a.u. and 0.1376 a.u. and 0.1361 a.u.

**Q.** And the “contractility of NRCMs” value ([3]; chronic remdesivir treatment, constant pacing)?
**A.** The value was “reduced contractility”.

**Q.** What about the “biotin–UT2-mediated UTS2R pulldown” value [4] of the same compound?
**A.** The value was “significantly impaired”.

**Q.** And the “⊿pEC50 compared to WT UTS2R” value [5]?
**A.** The value was -1.

**Q.** What about the “receptor activation of D130N mutant” value ([6]; D130N mutation vs WT, TGFα-shedding) of the same compound?
**A.** Its value is “significantly upregulated”.

**Q.** And the “⊿pEC50 compared to WT UTS2R” value ([6]; D130N, cutoff value set to −1, single replicates)?
**A.** The value was 0.5051 and 0.5402 and 0.5471 and 0.5928 and 0.4845.

**Q.** And the “prolonged FPD” value ([7]; 24 h)?
**A.** Its value is 1.32 ± 1.38%.

**Q.** And the “prolonged FPD” value ([7]; 48 h)?
**A.** Its value is 5.60 ± 1.60%.

**Q.** What about the “prolonged FPD” value ([7]; 72 h) of the same compound?
**A.** Its value is 15.57 ± 3.49%.

**Q.** What about the FPD delay ([7]; 24 h) of the same compound?
**A.** The FPD delay was −1.71 ± 1.60%.

**Q.** And the FPD delay ([7]; 48 h)?
**A.** Its FPD delay is −0.61 ± 0.11%.

**Q.** What about the “phosphorylation of ERK1/2” value [8] of the same compound?
**A.** The value was “long-lasting and dose-dependent phosphorylation of ERK1/2”.

**Q.** And the β-arrestin recruitment response [9]?
**A.** Its β-arrestin recruitment response is “failed to induce a β-arrestin recruitment response”.

**Q.** And the “⊿pEC50 compared to WT UTS2R” value [10]?
**A.** The value was > 0.3 and 0.5256 and 0.7054 and 0.6735 and 0.5172.

**Q.** What about the “⊿pEC50 compared to WT UTS2R” value [11] of the same compound?
**A.** The value was -1.

**Q.** What about the “⊿pEC50 compared to WT UTS2R” value [12] of the same compound?
**A.** Its value is -1 and -0.7407.

**Q.** What about the “⊿pEC50 compared to WT UTS2R” value [13] of the same compound?
**A.** The value was -1.

**Q.** And the “steady-state levels of mitochondrial respiratory complex proteins” value [14]?
**A.** The value was “did not affect”.
